This passage reports IC50 results from BindingDB's records for doi:10.1074/jbc.M113.503474 (The Ohio State University, 2013).

Values joined by “and” are separate entries in the source; they are usually repeats but may differ in a detail not shown here. Equal entries are not always repeated. Bounds are passed on as bounds.

Broadly, the IC50 is the point on the concentration scale where inhibition reaches its midpoint. Lower therefore signals greater potency in that assay.

Chain of Isoform Tau-F of Microtubule-associated protein tau (P10636 as listed by the source): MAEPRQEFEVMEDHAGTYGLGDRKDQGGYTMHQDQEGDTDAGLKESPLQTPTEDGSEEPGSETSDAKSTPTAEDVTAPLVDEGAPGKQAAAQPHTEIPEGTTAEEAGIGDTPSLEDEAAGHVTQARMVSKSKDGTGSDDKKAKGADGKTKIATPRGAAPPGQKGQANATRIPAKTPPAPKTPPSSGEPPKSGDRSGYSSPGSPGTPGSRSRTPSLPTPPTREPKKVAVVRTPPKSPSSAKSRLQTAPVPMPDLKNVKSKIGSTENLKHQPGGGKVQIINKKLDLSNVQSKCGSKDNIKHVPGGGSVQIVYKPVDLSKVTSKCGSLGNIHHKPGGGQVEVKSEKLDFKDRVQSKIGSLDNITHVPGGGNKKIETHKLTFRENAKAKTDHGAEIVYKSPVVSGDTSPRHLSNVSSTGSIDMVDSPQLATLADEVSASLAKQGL

This test deals with Isoform Tau-F of Microtubule-associated protein tau (Human, UniProt P10636). The test can be described thus: Tau Protein Assay. As to conditions: pH 7.4. The method, then:
The Tau content of fractions was determined by dot blot analysis using nitrocellulose membranes (0.2 μm porosity) as described previously [Cisek et al., Biophys. Chem., 170:25-33]. The membranes were blocked in 5% nonfat dry milk dissolved in blocking buffer (100 mM Tris-HCl, pH 7.4, and 150 mM NaCl) for 1 h and then incubated with primary antibody Tau5 at 1:5000 dilution for 2 h. Membranes were then washed three times with blocking buffer and incubated with horseradish peroxidase-linked secondary antibody for 2 h. After washing another three times with blocking buffer, membranes were imaged using the Enhanced Chemiluminescence Western blotting Analysis System (GE Healthcare, Buckinghamshire, UK) recorded on an Omega 12iC Molecular Imaging System and quantified using Ultra-Quant software (UltraLum, Claremont, CA, USA).
On to `O=C(O)CCCCN1C(=O)/C(=C/c2ccc(-c3ccc(-c4ccccc4)cc3)o2)SC1=S` [Rhodanines, 25A], for which the IC50 is 0.24 µM.

`O=C(O)CCCN1C(=O)/C(=C/c2ccc(-c3ccc(-n4cccc4)cc3)o2)SC1=S` [Rhodanines, 23A] registered an IC50 of 0.23 µM.

Turning to `O=C(O)Cc1ccc(CN2C(=O)/C(=C/c3cccc(-c4ccc(-c5ccccc5)cc4)n3)SC2=S)cc1` [Rhodanines, 62B], the IC50 is 35.5 µM.

Take `O=C(O)CCN1C(=O)/C(=C/c2ccc(-c3ccc(-c4ccc(C(=O)O)o4)cc3)o2)SC1=S` [Rhodanines, 21A]: the IC50 turned out to be 0.17 µM.

On to `CN(C)c1ccc(N=C2C=CC(=[N+](C)C)C=C2)cc1` [Bindschedler's green (19)], for which the IC50 was 1.09 µM.

On to `O=C(O)CN1C(=O)/C(=C/c2ccc(-c3cccc(Cl)c3)o2)SC1=S` [Rhodanines, 36A], for which the IC50 is 0.82 µM.

As to `CN(C)c1ccc(C(=C2C=CC(=[N+](C)C)C=C2)c2ccccc2)cc1` [Malachite green (16)], the IC50 stood at 0.52 µM.

The compound `CCN1/C(=C/C(C)=C/c2sc3ccccc3[n+]2CC)Sc2ccccc21` [SMR000354813] registered an IC50 of 0.28 µM.

Take `O=C1/C(=C/c2cccc(-c3ccc(-c4ccccc4)cc3)c2)SC(=S)N1CCc1c[nH]cn1` [Rhodanines, 57B]: 9.38 µM corresponded to half-maximal inhibition (IC50).

For `CC(C(=O)O)N1C(=O)/C(=C/c2ccc(-c3cccc(Cl)c3)o2)SC1=S` (stereo unspecified) [Rhodanines, 42A], the IC50 is 1.41 µM and 4.36 µM.

In turn, `O=C1/C(=C/c2ccc(-c3cccc(Cl)c3)o2)SC(=S)N1CCc1c[nH]cn1` [Rhodanines, 39A] registered an IC50 of 1.09 µM.

Turning to `CCCN1/C(=C/C=C/C2=[N+](CCC)c3ccccc3C2(C)C)C(C)(C)c2ccccc21` [Cyanines, 6], it took 2.57 µM to reach half-maximal inhibition (IC50).

`O=C(O)Cc1ccc(CN2C(=O)/C(=C/c3cccc(-c4ccc(-c5ccccc5)cc4)c3)SC2=S)cc1` [Rhodanines, 64B] returned an IC50 of 146 µM.

`O=C(O)CCN1C(=O)/C(=C/c2ccc(-c3ccc(-c4ccccc4)cc3)cc2)SC1=S` [Rhodanines, 60B] gave an IC50 of 19.6 µM.

`O=C(O)CCN1C(=O)/C(=C/c2ccc(-c3ccccc3Cl)o2)SC1=S` [Rhodanines, 31A] displayed an IC50 of 0.65 µM.

`O=C(O)Cc1ccc(CN2C(=O)/C(=C/c3ccc(-c4ccc(-c5ccccc5)cc4)o3)SC2=S)cc1` [Rhodanines, 33A]: the IC50 was found to be 0.73 µM.

On to `O=C(O)CCCCN1C(=O)/C(=C/c2cccc(-c3ccc(-c4ccccc4)cc3)n2)SC1=S` [Rhodanines, 52B], for which 5.03 µM corresponded to half-maximal inhibition (IC50).

The compound `O=C(O)CN1C(=O)/C(=C/c2ccc(-c3cccc(Cl)c3)o2)OC1=S` [Rhodanines, 46A] had an IC50 of 3.1 µM.

`C1=C2\Sc3ccccc3N2CCCC[n+]2c(sc3ccccc32)/C=C/C=C2\Sc3ccccc3N2CCCC[n+]2c(sc3ccccc32)/C=C/1` [Cyanines, 9] showed an IC50 of 0.12 µM.

Compound `O=C(O)CCCCN1C(=O)/C(=C/c2ccc(-c3ccc(-c4ccc(C(=O)O)o4)cc3)o2)SC1=S` [Rhodanines, 26A] returned an IC50 of 0.26 µM.

On to `O=C(O)Cc1ccc(CN2C(=O)/C(=C/c3ccc(-c4cccc(Cl)c4)o3)SC2=S)cc1` [Rhodanines, 44A], for which it took 1.97 µM to reach half-maximal inhibition (IC50).

As for `O=C(O)CCCN1C(=O)/C(=C/c2ccc(-c3cccc(Cl)c3)o2)SC1=S` [Rhodanines, 40A], half-maximal inhibition (IC50) was put at 1.22 µM.

Take `O=C(O)CCCCN1C(=O)/C(=C/c2ccc(-c3ccc(-n4cccc4)cc3)o2)SC1=S` [Rhodanines, 22A]: the IC50 was determined as 0.21 µM.

`CN(C)c1ccc(C(=C2C=CC(=[N+](C)C)C=C2)c2ccc(N(C)C)cc2)cc1` [CHEBI:77181]: inhibition was half-maximal at 0.49 µM (IC50).

`O=C1/C(=C/c2cccc(-c3ccc(-c4ccccc4)cc3)n2)SC(=S)N1CCc1c[nH]cn1` [Rhodanines, 63B] registered an IC50 of 117 µM.

Turning to `O=C1/C(=C/c2ccc(-c3ccc(-c4ccccc4)cc3)o2)SC(=S)N1Cc1nc2ccccc2[nH]1` [Rhodanines, 41A], it took 1.4 µM to reach half-maximal inhibition (IC50).

`O=C(O)CCCN1C(=O)/C(=C/c2ccc(-c3ccc(-c4ccccc4)cc3)o2)SC1=S` [Rhodanines, 37A] showed a half-inhibitory concentration (IC50) of 0.94 µM.

`O=C(O)CC(C(=O)O)N1C(=O)/C(=C/c2ccc(-c3cccc(Cl)c3)o2)SC1=S` (stereo unspecified) [Rhodanines, 27A] showed a half-inhibitory concentration (IC50) of 0.42 µM.

`O=C1/C(=C/c2ccc(-c3cccc(Cl)c3)o2)SC(=S)N1Cc1nc2ccccc2[nH]1` [Rhodanines, 32A]: the IC50 was 0.67 µM.

Turning to `O=C(O)CCN1C(=O)/C(=C/c2ccc(-c3ccc(-c4ccccc4)cc3)o2)SC1=S` [Rhodanines, 20A], half-maximal inhibition (IC50) was put at 0.17 µM.

Compound `O=C(O)c1ccc(-c2ccc(-c3ccc(/C=C4\SC(=S)N(CCc5c[nH]cn5)C4=O)o3)cc2)o1` [Rhodanines, 34A] returned an IC50 of 0.75 µM.

`C/N=c1\ccc2nc3ccc(N)cc3sc-2c1` [Azure C (13)] registered an IC50 above 10 µM.

The compound `O=C1/C(=C/c2ccc(-c3ccc(-c4ccccc4)cc3)o2)SC(=S)N1CCc1c[nH]cn1` [Rhodanines, 54A] yielded an IC50 of 7.7 µM.

In turn, `O=C1/C(=C/c2ccc(-c3ccc(-n4cccc4)cc3)o2)SC(=S)N1CCc1c[nH]cn1` [Rhodanines, 43A] showed an IC50 of 1.85 µM.

For the compound `O=C(O)CCCN1C(=O)/C(=C/c2cccc(-c3ccc(-c4ccccc4)cc3)n2)SC1=S` [Rhodanines, 51B], 5.03 µM corresponded to half-maximal inhibition (IC50).

Regarding `CNc1ccc2nc3ccc(=[N+](C)C)cc-3sc2c1` [Azure B (11)], the IC50 stood at 1.28 µM.

In turn, `O=C(O)Cc1ccc(CN2C(=O)/C(=C/c3ccc(-c4ccc(-n5cccc5)cc4)o3)SC2=S)cc1` [Rhodanines, 35A] displayed an IC50 of 0.78 µM.

`O=C1C=CC(=C(c2ccc(O)cc2)c2ccc(O)cc2)C=C1` [Corallin] had a concentration for half-maximal inhibition (IC50) above 10 µM.

On to `O=C(O)Cc1ccc(CN2C(=O)/C(=C/c3ccc(-c4ccc(-c5ccc(C(=O)O)o5)cc4)o3)SC2=S)cc1` [Rhodanines, 30A], for which the IC50 was 0.58 µM.

Compound `O=C1/C(=C/c2ccc(-c3ccc(-n4cccc4)cc3)o2)SC(=S)N1Cc1nc2ccccc2[nH]1` [Rhodanines, 29A] came in with a half-maximal inhibitory concentration (IC50) of 0.54 µM.

For `O=C(O)CCN1C(=O)C(=CC2CCC(c3ccc(-c4ccccc4)cc3)C2)SC1=S` (stereo unspecified) [Rhodanines, 55A], inhibition was half-maximal at 7.92 µM (IC50).

In turn, `N=C1C=CC(=C(c2ccc(N)cc2)c2ccc(N)cc2)C=C1` [Fuschin (17)] gave an IC50 above 10 µM.

Consider `O=C(O)CCN1C(=O)/C(=C/c2ccc(-c3cccc(Cl)c3)o2)SC1=S` [Rhodanines, 28A], for which inhibition was half-maximal at 0.47 µM (IC50).

`O=C(O)CCN1C(=O)/C(=C/c2ccc(-c3ccc(-n4cccc4)cc3)o2)SC1=S` [Rhodanines, 24A] yielded an IC50 of 0.24 µM.

Compound `O=C(O)CN1C(=O)/C(=C/c2ccc(-c3cccc(Cl)c3)o2)NC1=S` [Rhodanines, 53A] displayed an IC50 of 6.1 µM.

Turning to `O=C(O)CCN1C(=O)/C(=C/c2ccc(-c3cccc(Cl)c3)s2)SC1=S` [Rhodanines, 38A], inhibition was half-maximal at 0.97 µM (IC50).

With `N=c1ccc2nc3ccc(N)cc3sc-2c1`, the IC50 is above 10 µM.

In the case of `CCC(/C=C1\Sc2ccc(OC)cc2N1CCO)=C\c1sc2ccc(OC)cc2[n+]1CCO`, the IC50 stood at 0.29 µM.

For the compound `O=C(O)Cc1ccc(CN2C(=O)/C(=C/c3ccc(-c4ccc(-c5ccccc5)cc4)cc3)SC2=S)cc1` [Rhodanines, 59B], the IC50 came out at 14.8 µM.

In turn, `O=C1/C(=C/c2ccc(-c3ccc(-c4ccccc4)cc3)cc2)SC(=S)N1CCc1c[nH]cn1` [Rhodanines, 58B] registered an IC50 of 12.4 µM.

On to `C[N+](C)=c1ccc2nc3ccc(N)cc3sc-2c1` [AZURE A], for which the IC50 is above 10 µM.
